Here are results for 45 molecules from publication PMC6255377, “New 1-Aryl-3-Substituted Propanol Derivatives as Antimalarial Agents” (Molecules, 2009).

The subject of data set [1] is P. falciparum 3D7 strain, chloroquine sensitive. Briefly: In vitro antimalarial activity screening (SYBR Green I micromethod). The conditions noted are these: Plasmodium falciparum, 3D7, 48 h incubation, mean of two experiments in triplicate, read-out: P. falciparum 3D7 IC50. The format is cell-based. As to the method:
The SYBR^©GreenI-based micromethod was followed for testing the antimalarial activity of the compounds. Erythrocytic stages of P. falciparum 3D7 strain, chloroquine sensitive, were maintained in RPMI 1640 culture medium supplemented with 0.5% Albumax II at 37 °C in an atmosphere with 5% CO2. […] Next, stock solutions of each compound were prepared in DMSO and diluted in RPMI medium in order to obtain concentrations from 10 to 0.01 µg/mL. […] All compounds and controls were placed in triplicate. The plate was incubated under the same conditions. After 48 h, the plate was removed from the incubator and frozen for at least 1 h at -70 °C and then thawed. Finally, 100 µL of SYBR^©GreenI in lysis buffer (0.2 µL/mL) was added per well and shaken for 5 minutes or until no precipitated erythrocytes were observed. The plate was left to stand in the dark for 1 h at room temperature. Fluorescence intensity (FI) for each well was measured. The background of the nonparasitized erythrocytes was subtracted from each well tested.

SMILES strings stand for the structures. Counter-ions that a name gives are not always drawn. Like-named read-outs stand apart in the source and are kept apart here.

As to `OC(CCN1CCN(c2cnc3ccccc3n2)CC1)c1csc2ccccc12` (stereo not shown) [Compound 35, 1-(Benzo[b]thiophen-3-yl)-3-(4-(quinoxalin-2-yl)piperazin-1-yl)propan-1-ol], the melting point (in general, the temperature, or range, at which the solid turns liquid) lay in the range of 155 to 156 °C. Also, the IC50 (usually the concentration that gives 50% inhibition) in data set [1] (Table 1) was determined as 0.62 µM.
`OC(CCN1CCN(c2cccc3[nH]ccc23)CC1)c1csc2ccccc12` (stereo not shown) [Compound 17]: the IC50 in data set [1] (Table 1) was determined as 6.99 µM.
For the molecule `O=C(CCN1CCN(c2cccc3cccnc23)CC1)c1csc2ccc(F)cc12` [Compound 4], the 50% inhibitory concentration (IC50) in data set [1] (Table 1) was more than 20 µM.
In the case of `O=[N+]([O-])c1ccc([C@@]2(NCCC(O)c3ccc4ccccc4c3)CCNC2)c(C(F)(F)F)c1` (stereo partly drawn) [Compound 45, 1-(2-naphthyl)-3-[3-(4-nitro-2-trifluoromethylphenyl)-(S)-pyrrolidin-3-ylamino]-propan-1-ol], the IC50 in data set [1] (Table 2) stood at 9.1 µM.
Still for that read-out and setting: for `COc1ccccc1N1CCN(CCC(O)c2ccc3ccccc3c2)CC1` (stereo not shown) [Compound 42] the value was 0.83 µM.
Turning to `OC(CCN1CCN(c2ccc(Cl)cc2)CC1)c1ccc(-c2ccccc2)cc1` (stereo not shown) [Compound 38, 1-(4-Phenyl)phenyl-3-[4-(4-chlorophenyl)piperazin-1-yl]propan-1-ol], the melting point fell in the range of 169 to 170 °C. In addition, in data set [1] (Table 2), the IC50 is more than 20 µM.
Consider `COc1ccccc1N1CCN(CCC(=O)c2csc3ccccc23)CC1` [Compound 3], for which, in data set [1] (Table 1), the half-inhibitory concentration (IC50) was more than 20 µM.
For `O=C(CCN1CCN(c2cnc3ccccc3n2)CC1)c1csc2ccccc12` [Compound 10, 1-(Benzo[b]thiophen-3-yl)-3-[4-(quinoxalin-2-yl)piperazin-1-yl]propan-1-one], the melting point fell in the range of 145 to 146 °C. In data set [1] (Table 1), the IC50 was more than 20 µM.
With `OC(CCN1CCN(c2cccc3c2OCCO3)CC1)c1csc2ccc(F)cc12` (stereo not shown) [Compound 27], the IC50 in data set [1] (Table 1) was found to be 0.9 µM.
On to `COc1ccccc1N1CCN(CCC(O)c2ccccc2)CC1` (stereo not shown) [Compound 39], for which the half-inhibitory concentration (IC50) in data set [1] (Table 2) is more than 20 µM.
In the case of `OC(CCN1CCN(c2ccc(Cl)cc2)CC1)c1ccccc1` (stereo not shown) [Compound 37], the 50% inhibitory concentration (IC50) in data set [1] (Table 2) was determined as 13 µM.
Turning to `OC(CCN1CCN(c2ccc(Cl)cc2)CC1)c1csc2ccccc12` (stereo not shown) [Compound 19], the IC50 in data set [1] (Table 1) was 5.65 µM.
Molecule `COc1ccccc1N1CCN(CCC(O)c2ccc(-c3ccccc3)cc2)CC1` (stereo not shown) [Compound 40, 1-(4-Phenyl)phenyl-3-[4-(2-methoxyphenyl)piperazin-1-yl]propan-1-ol] gave a melting point of 109 to 110 °C. In addition, the IC50 in data set [1] (Table 2) turned out to be 14.6 µM.
For `O=C(CCN1CCCN(c2ccc([N+](=O)[O-])cc2)CC1)c1csc2ccccc12` [Compound 9, 1-(benzo[b]thiophen-3-yl)-3-[4-(4-nitrophenyl)-1,4-diazepan-1-yl]propan-1-one], in data set [1] (Table 1), the IC50 was more than 20 µM.
Molecule `O=C(CCN1CCCN(c2ccc([N+](=O)[O-])cc2)CC1)c1csc2ccccc12` (as salt: hydrochloride) [Compound 9, 1-(benzo[b]thiophen-3-yl)-3-[4-(4-nitrophenyl)-1,4-diazepan-1-yl]propan-1-one] gave a melting point of 121 to 123 °C.
Same read-out and setting: the value for `COc1cccc(N2CCN(CCC(O)c3csc4ccc(F)cc34)CC2)c1` (stereo not shown) (as salt: hydrochloride) [Compound 16, 1-(5-fluorobenzo[b]thiophen-3-yl)-3-[4-(3-methoxyphenyl)piperazin-1-yl]propan-1-ol] was 135 to 137 °C.
As for `COc1ccccc1N1CCN(CCC(=O)c2csc3ccc(F)cc23)CC1` [Compound 2], the IC50 in data set [1] (Table 1) is more than 20 µM.
Consider `O=[N+]([O-])c1ccc(N2CCN(CCC(O)c3csc4ccc(F)cc34)CC2)cc1` (stereo not shown) [Compound 32, 1-(5-Fluorobenzo[b]thiophen-3-yl)-3-[4-(4-nitrophenyl)piperazin-1-yl]propan-1-ol], for which the melting point lay within 189 to 190 °C. Besides, in data set [1] (Table 1), the IC50 is more than 20 µM.
Consider `O=C(CCNC1CCN(c2ccc([N+](=O)[O-])cc2)CC1)c1csc2ccccc12` [Compound 8, 1-(Benzo[b]thiophen-3-yl)-3-[1-(4-nitrophenyl)piperidin-4-ylamino]propan-1-one], for which the melting point lay in the range of 144 to 145 °C. In addition, the IC50 in data set [1] (Table 1) was more than 20 µM.
Take `Cc1ccc2cccc(N3CCN(CCC(O)c4csc5ccccc45)CC3)c2n1` (stereo not shown) [Compound 22]: in data set [1] (Table 1), the IC50 worked out at 0.66 µM.
Same read-out and setting: for `COc1cccc(N2CCN(CCC(O)c3csc4ccc(F)cc34)CC2)c1` (stereo not shown) [Compound 16, 1-(5-fluorobenzo[b]thiophen-3-yl)-3-[4-(3-methoxyphenyl)piperazin-1-yl]propan-1-ol] the value was 1.67 µM; for `OC(CCN1CCN(c2cccc3ccccc23)CC1)c1csc2ccccc12` (stereo not shown) [Compound 11], 6.13 µM.
For `O=[N+]([O-])c1ccc(N2CC[C@H](NCCC(O)c3csc4ccccc34)C2)c(C(F)(F)F)c1` (stereo partly drawn) [Compound 30, 1-(Benzo[b]thiophen-3-yl)-3-[1-(4-nitro-2-trifluoromethylphenyl)-(S)-pyrrolidin-3-ylamino]propan-1-ol], the melting point was in the range of 109 to 110 °C. Besides, the IC50 in data set [1] (Table 1) was 0.97 µM.
Take `Oc1ccccc1N1CCN(CCC(O)c2csc3ccccc23)CC1` (stereo not shown) [Compound 14]: in data set [1] (Table 1), the IC50 worked out at 13.7 µM.
As to `O=[N+]([O-])c1ccc(N2CCCN(CCC(O)c3csc4ccccc34)CC2)cc1` (stereo not shown) [Compound 34, 1-(Benzo[b]thiophen-3-yl)-3-(4-(4-nitrophenyl)-1,4-diazepan-1-yl)propan-1-ol], the melting point was in the range of 47 to 48 °C. Moreover, the IC50 in data set [1] (Table 1) was 3.43 µM.
As for `COc1ccccc1N1CCN(CCC(O)c2csc3ccccc23)CC1` (stereo not shown) [Compound 13], the IC50 in data set [1] (Table 1) is 1.07 µM.
In turn, `O=C(CCN1CC[C@@H](Nc2ccc([N+](=O)[O-])cc2C(F)(F)F)C1)c1csc2ccccc12` [Compound 7, 1-(Benzo[b]thiophen-3-yl)-3-[3-(4-nitro-2-trifluoromethylphenylamino)-(R)-pyrrolidin-1-yl] propan-1-one] gave a melting point of 98 to 100 °C. Further, in data set [1] (Table 1), the concentration for half-maximal inhibition (IC50) was more than 20 µM.
`Cc1ccc(C(O)CCN2CCN(c3ccccc3O)CC2)c(C)c1` (stereo not shown) [Compound 46]: the IC50 in data set [1] (Table 2) came out at 18.2 µM.
The same measure, in the same setting: for `COc1ccccc1N1CCN(CCC(O)c2ccc(C)cc2C)CC1` (stereo not shown) [Compound 43] the value was 16.9 µM.
Take `OC(CCN1CCN(c2cccc3ncccc23)CC1)c1csc2ccccc12` (stereo not shown) [Compound 24]: in data set [1] (Table 1), the IC50 was found to be 1.3 µM.
Regarding `O=[N+]([O-])c1ccc([C@@]2(NCCC(O)c3ccc4ccccc4c3)CCNC2)c(C(F)(F)F)c1` (stereo partly drawn) (as salt: hydrochloride) [Compound 45, 1-(2-naphthyl)-3-[3-(4-nitro-2-trifluoromethylphenyl)-(S)-pyrrolidin-3-ylamino]-propan-1-ol], the melting point fell in the range of 181 to 183 °C.
As to `O=[N+]([O-])c1ccc(N2CCN(CCC(O)c3csc4ccccc34)CC2)c(C(F)(F)F)c1` (stereo not shown) [Compound 28, 1-(Benzo[b]thiophen-3-yl)-3-[4-(4-nitro-2-trifluoromethylphenyl)piperazin-1-yl]propan-1-ol], the melting point fell in the range of 154 to 155 °C. Also, in data set [1] (Table 1), the IC50 stood at 0.68 µM.
For `OC(CCN1CCN(c2cccc3[nH]ccc23)CC1)c1csc2ccc(F)cc12` (stereo not shown) [Compound 18], the IC50 in data set [1] (Table 1) was 3.81 µM.
Still for that read-out and setting: the value for `OC(CCN1CCN(c2cccc3c2OCCO3)CC1)c1csc2ccccc12` (stereo not shown) [Compound 26] was 3.56 µM; that for `OC(CCN1CCN(c2cccc3cccnc23)CC1)c1csc2ccc(F)cc12` (stereo not shown) [Compound 21] was 0.79 µM.
Regarding `O=[N+]([O-])c1ccc(N[C@@H]2CCN(CCC(O)c3csc4ccccc34)C2)c(C(F)(F)F)c1` (stereo partly drawn) [Compound 29, 1-(Benzo[b]thiophen-3-yl)-3-[3-(4-nitro-2-trifluoromethylphenylamino)-(R)-pyrrolidin-1-yl]propan-1-ol], the melting point is 48 to 50 °C. The IC50 in data set [1] (Table 1) worked out at 2.99 µM.
For `OC(CCN1CCN(c2cccc3cccnc23)CC1)c1csc2ccccc12` (stereo not shown) [Compound 20], in data set [1] (Table 1), the IC50 is 2.15 µM.
Regarding `O=[N+]([O-])c1ccc(N2CCC(NCCC(O)c3csc4ccccc34)CC2)cc1` (stereo not shown) [Compound 33, 1-(Benzo[b]thiophen-3-yl)-3-(1-(4-nitrophenyl)piperidin-4-ylamino)propan-1-ol], the melting point lay within 153 to 155 °C. Besides, in data set [1] (Table 1), the IC50 was 1 µM.
`COc1ccccc1N1CCN(CCC(O)c2c[nH]c3ccccc23)CC1` (stereo not shown) [Compound 41, 1-(3-Indolyl)-3-[4-(2-methoxyphenyl)piperazin-1-yl]propan-1-ol] gave a melting point of 188 to 189 °C. For the same molecule, the IC50 in data set [1] (Table 2) was more than 20 µM.
For `OC(CCN1CCN(c2ccc3ccccc3n2)CC1)c1csc2ccccc12` (stereo not shown) [Compound 25], the IC50 in data set [1] (Table 1) was 2.22 µM.
In turn, `COc1ccccc1N1CCN(CCC(O)c2ccc3cc(C)ccc3c2)CC1` (stereo not shown) (as salt: hydrochloride) [Compound 44, 1-(6-methylnapth-2-yl)-3-[4-(2-methoxyphenyl)piperazin-1-yl]propan-1-ol] returned a melting point of 116 to 117 °C.
Consider `O=C(CCN1CCN(c2cccc3ccccc23)CC1)c1csc2ccc(F)cc12` [Compound 1], for which, in data set [1] (Table 1), the IC50 was more than 20 µM.
Turning to `OC(CCN1CCN(c2ccc(Cl)cc2)CC1)c1ccsc1` (stereo not shown) [Compound 36], the IC50 in data set [1] (Table 2) is more than 20 µM.
Take `Cc1ccc2cccc(N3CCN(CCC(=O)c4csc5ccccc45)CC3)c2n1` [Compound 5]: the IC50 in data set [1] (Table 1) was more than 20 µM.
As for `COc1ccccc1N1CCN(CCC(O)c2ccc3cc(C)ccc3c2)CC1` (stereo not shown) [Compound 44, 1-(6-methylnapth-2-yl)-3-[4-(2-methoxyphenyl)piperazin-1-yl]propan-1-ol], the half-maximal inhibitory concentration (IC50) in data set [1] (Table 2) amounted to 9.64 µM.
